{
  "source": "patent US9403916B2",
  "about": "“Polysaccharide-and polypeptide-based block copolymers, vesicles constituted by these copolymers and use thereof” (priority 2008, dated 2016)",
  "key": {"[1]": {"system": "DMBA-induced tumour in female Sprague-Dawley rats", "test": "Antitumour efficacy in DMBA-induced tumour, tumour regression and survival", "assay_type": "in vivo", "conditions": "rat, single intravenous dose 5 mg/kg doxorubicin", "description": "Female Sprague-Dawley rats aged 8 weeks (120-140 g) were used in a study of tumour regression.\n7,12-dimethylbenz[α]anthracene (DMBA) was administered orally (in soya oil) to the animals in 3 doses of 45 mg/kg at one-week intervals, to generate the tumour.\nThe treatment with doxorubicin was given 10 weeks after the last dose of DMBA. The width of the tumour (w) and its length (l) were recorded with callipers and the size of the tumour was calculated from the formula (w×l^2/2).\nAfter 10 weeks from tumour induction, the animals with tumours were separated and divided randomly into different treatment groups, then treated with a single dose of 250 μl of doxorubicin by intravenous route at 5 mg/kg, either in the form of free doxorubicin, or in the form of doxorubicin encapsulated in the micellar vesicles of Example 6.\nThe control group received a single dose of 250 μl of PBS buffer (pH 7.4) by the intravenous route.\nThe study was terminated […] after treatment.\nObservation of the survival of the animals with a tumour, which were treated, was continued until 60 days after treatment."}, "cells of rat glioma C6": {"system": "cells of rat glioma C6", "test": "Cellular viability (toxicity) MTT test", "assay_type": "cell-based", "conditions": "48 h, read-out: IC50 (concentration for which half of the cells remain viable)", "description": "Experiments of toxicity and release in vitro were performed using vesicles based on hyaluronic acid-block-poly(γ-benzyl L-glutamate) diblock copolymer prepared in Example 6, containing 11% of doxorubicin. The in-vitro experiments were performed on cells of rat glioma C6, in Dulbecco's modified Eagle's medium (DMEM) containing 5% of foetal calf serum. The C6 cells (5×10^5 cells) are placed in bottles of 10 cm diameter and are grown in 10 ml of culture medium containing penicillin (10000 μg/mL), streptomycin (10000 μg/mL) and amphotericin B (25 μg/mL) [Invitrogen Corporation] in an incubator at 37° C. in a controlled atmosphere with 5% CO2. For the tests of cellular viability (or toxicity), C6 cells were incubated in a 24-well plate (15×10^4 cells per well), for 24 h. Viability was determined by a conventional test with tetrazolium salt MTT (3-(4,5-dimethylthiazol-2-yl)-2,5-diphenyl tetrazolium bromide). The tetrazolium that it contains is reduced to formazan by the mitochondrial succinate dehydrogenase of the active living cells. The colour of the medium then changes from yellow to purplish-blue. The intensity of this coloration is proportional to the number of living cells present during the test. Analysis is performed by spectrophotometry (U-2800A, HITACHI), measuring the absorbance at 570 nm. […]"}},
  "note": "pIC50: −log10 of the molar value.",
  "data": [
    {"smiles": "COc1cccc2c1C(=O)c1c(O)c3c(c(O)c1C2=O)C[C@@](O)(C(=O)CO)C[C@@H]3O[C@H]1C[C@H](N)[C@H](O)[C@H](C)O1", "note": "[free doxorubicin, doxorubicin]", "values": [
      {"measurement": "tumour growth in comparison with control group treated with PBS", "setting": "[1]", "value": "significantly inhibit tumour growth"},
      {"measurement": "tumour regression after 15 days of treatment", "setting": "[1]", "value": "regression reaches a plateau"},
      {"measurement": "pIC50", "setting": "cells of rat glioma C6", "value": 6.08}
    ]}
  ]
}
